Test results published in the supplement of paper PMC10307832.

Tests used:
Experiment in all cases: relative viability (nuclei count vs DMSO), 5 days (fraction); higher = more cells survive
[1] = compound: CN(C)CC1=CC(=CC=C1)N=C(C2=CC=CC=C2)C3=C(NC4=C3C=CC(=C4)C(=O)N(C)C)O + CCNC(=O)c1noc(-c2cc(C(C)C)c(O)cc2O)c1-c1ccc(CN2CCOCC2)cc1 [Luminespib] (partner 0.01 µM)
How it was run: (§1)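 Relative viability is defined as nuclei in treated wells over nuclei in vehicle wells. Duplicate plates were run and medians reported. Lung cancer cell lines in 1536-well plates were dosed by pin tool one day after seeding, with one drug or with a fixed anchor-drug dose plus five library-drug doses (not always all listed) in √10 steps, and nuclei were counted after 5 days.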

[2] = compound: CN(C)CC1=CC(=CC=C1)N=C(C2=CC=CC=C2)C3=C(NC4=C3C=CC(=C4)C(=O)N(C)C)O + CS(=O)(=O)N1CCN(Cc2cc3nc(-c4cccc5[nH]ncc45)nc(N4CCOCC4)c3s2)CC1 [Pictilisib] (partner 1 µM)
How it was run: as §1

[3] = compound: CN(C)CC1=CC(=CC=C1)N=C(C2=CC=CC=C2)C3=C(NC4=C3C=CC(=C4)C(=O)N(C)C)O + CC(=O)c1c(C)c2cnc(Nc3ccc(N4CCNCC4)cn3)nc2n(C2CCCC2)c1=O [Palbociclib] (partner 0.5 µM)
How it was run: as §1

[4] = compound: CN(C)CC1=CC(=CC=C1)N=C(C2=CC=CC=C2)C3=C(NC4=C3C=CC(=C4)C(=O)N(C)C)O + COc1cccc2cc(-c3nc([C@H]4CC[C@H](C(=O)O)CC4)n4ncnc(N)c34)[nH]c12 [OSI-027] (partner 0.5 µM)
How it was run: as §1

Cell Line	relative viability ([1]; first compound 0.08 µM)	relative viability ([1]; first compound 0.253 µM)	relative viability ([1]; first compound 0.8 µM)	relative viability ([1]; first compound 2.53 µM)	relative viability ([1]; first compound 8 µM)	relative viability ([2]; first compound 0.08 µM)	relative viability ([2]; first compound 0.253 µM)	relative viability ([2]; first compound 0.8 µM)	relative viability ([2]; first compound 2.53 µM)	relative viability ([2]; first compound 8 µM)	relative viability ([3]; first compound 0.08 µM)	relative viability ([3]; first compound 0.253 µM)	relative viability ([3]; first compound 0.8 µM)	relative viability ([3]; first compound 2.53 µM)	relative viability ([3]; first compound 8 µM)	relative viability ([4]; first compound 0.08 µM)	relative viability ([4]; first compound 0.253 µM)	relative viability ([4]; first compound 0.8 µM)	relative viability ([4]; first compound 2.53 µM)	relative viability ([4]; first compound 8 µM)
HOP-62	0.818	0.933	0.977	0.929	1.05	0.817	0.7	0.587	0.943	0.497	0.372	0.445	0.441	0.43	0.4	0.852	0.847	0.827	0.769	0.799
NCI-H2347	0.355	0.444	0.34	0.383	0.298	0.868	0.637	0.697	0.663	0.6	0.428	0.389	0.445	0.456	0.518	0.444	0.525	0.407	0.471	0.703
NCI-H2170	0.791	0.566	0.53	0.667	0.549	0.299	0.329	0.238	0.303	0.297	0.443	0.384	0.341	0.368	0.397	0.739	0.75	0.465	0.69	0.676
EPLC-272H	0.309	0.363	0.239	0.308	0.211	0.301	0.331	0.323	0.347	0.457	0.309	0.35	0.269	0.357	0.301	0.312	0.37	0.264	0.258	0.283
NCI-H2405	0.992	0.652	0.681	0.614	0.552	0.457	0.357	0.441	0.385	0.382	0.545	0.562	0.513	0.467	0.478	0.629	0.653	0.618	0.57	0.544
SW 1573	0.162	0.269	0.207	0.296	0.183	0.474	0.512	0.523	0.385	0.456	0.323	0.42	0.367	0.34	0.317	0.581	0.644	0.626	0.638	0.521
NCI-H358	0.304	0.277	0.331	0.414	0.276	0.384	0.28	0.34	0.331	0.347	0.122	0.139	0.141	0.149	0.17	0.824	0.706	0.633	0.671	0.549
LCLC-97TM1	0.757	0.849	0.771	0.957	0.834	0.174	0.218	0.157	0.224	0.305	0.199	0.224	0.258	0.254	0.299	0.611	0.627	0.543	0.436	0.656
NCI-H322M	0.808	0.864	0.62	0.707	0.532	0.499	0.742	0.388	0.496	0.701	0.448	0.48	0.45	0.442	0.432	0.581	0.562	0.555	0.499	0.475
NCI-H1355	0.687	0.713	0.735	0.764	0.66	0.495	0.507	0.329	0.402	0.341	0.425	0.399	0.305	0.4	0.4	0.463	0.457	0.393	0.491	0.329
COR-L 105	0.865	0.688	0.567	1.23	0.622	0.356	0.381	0.39	0.377	0.332	0.407	0.4	0.362	0.379	0.407	0.634	0.641	0.477	0.687	0.609
NCI-H1915	0.745	0.745	0.811	0.836	0.667	0.911	0.972	0.92	0.901	0.918	0.533	0.528	0.555	0.537	0.48	0.635	0.643	0.71	0.659	0.575
NCI-H1650	0.194	0.202	0.227	0.199	0.186	0.591	0.622	0.531	0.625	0.54	0.36	0.399	0.331	0.314	0.364	0.756	0.686	0.612	0.714	0.524
NCI-H2126	0.993	0.858	0.937	0.883	0.886	0.451	0.518	0.451	0.541	0.507	0.373	0.362	0.286	0.363	0.36	0.612	0.745	0.812	0.8	0.676
LCLC-103H	0.948	0.959	1.07	0.926	0.863	0.595	0.671	0.616	0.586	0.593	0.255	0.425	0.558	0.449	0.458	0.452	0.538	0.493	0.493	0.452
HARA	0.867	0.742	0.763	0.747	0.656	0.401	0.472	0.405	0.466	0.412	0.242	0.223	0.247	0.302	0.236	0.525	0.553	0.397	0.482	0.319
